Laboratory results reported in US9434725B2, “5-azaindazole compounds and methods of use” (priority 2012, dated 2016).

What was measured:
PIM2 = PIM2 (Homo sapiens (Human), UniProt Q9P1W9); experiment: Pim kinase binding activity, Caliper LC3000 microfluidic peptide phosphorylation assay, PIM2; format: biochemical; details: 10 μM ATP, 90 min, room temperature; read-out: PIM2 LC3K (KI)
In short: (§1)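 Pim-specific fluorescent peptide phosphorylated in 10 mM HEPES pH 7.2, 10 mM MgCl2, 0.01% Tween 20, 2 mM DTT for 90 min at room temperature, then stopped with EDTA. Product and substrate separated by microfluidic mobility shift; Ki derived from substrate conversion.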

PIM3 = PIM3 (Homo sapiens (Human), UniProt Q86V86); experiment: Pim kinase binding activity, Caliper LC3000 microfluidic peptide phosphorylation assay, PIM3; format: biochemical; details: 10 μM ATP, 90 min, room temperature; read-out: PIM3 LC3K (KI)
In short: as §1

[1] = test system: MM1.S (multiple myeloma) cells; experiment: In vitro cell proliferation potency assay (Cell Titer Glo), MM1.S cells; format: cell-based; details: Homo sapiens, MM1.S, 72 h, MM1.S cells, 72 hours; read-out: Prolif MM1S ATP (EC50)
Method: (§2) BaF3 parental line was obtained from the DSMZ repository. BaF3 lines transfected with PIM1 or PIM2 were generated. Mouse IL-3 was purchased from R&D Systems. G418 was purchased from Clontech. Media for BaF3 parental line contained RPMI, 10% FBS, 2 mM L-Glutamine, 2 ng/mL mIL-3. Media for BaF3 PIM1 & 2 lines contained RPMI, 10% FBS, 2 mM L-Glutamine, […]. Media for MM1.S (multiple myeloma cells) line contained RPMI, 10% FBS, 2 mM L-Glutamine.
(§3) BaF3, a murine interleukin-3 dependent pro-B cell line, parental cells, BaF3 PIM1 cells, BaF3 PIM2 cells, and MM1.S (multiple myeloma) cells were seeded at 2 k/well, 5 k/well, 5 k/well, and 10 k/well respectively, in a 384-well plate, at 45 μL/well. Test compound was added at 5 μL/well. BaF3 cells (parental and transfected) were incubated overnight, while MM1.S cells were incubated for 72 hours at 37° C., 5% CO2. CELL TITER GLO® Reagent (Promega) was added at 50 μL/well, the plates were incubated for 30 minutes, and their luminescence read on an HT Analyst. IC50/EC50 values for the test compound were calculated.

PIM1 = PIM1 (Homo sapiens (Human), UniProt P11309); experiment: biochemical; format: biochemical; details: 10 μM ATP, 90 min, room temperature; read-out: PIM1 LC3K (KI)
In short: as §1

BaF3 PIM1 cells = experiment: In vitro cell proliferation potency assay (Cell Titer Glo), BaF3 PIM1 cells; format: cell-based, murine; details: Mus musculus, BaF3, BaF3 cells transfected with PIM1, incubated overnight; read-out: Prolif BaF3_PIM 1 (IC50)
Method: as §2, §3

PIM1, sequence (P11309 whole entry): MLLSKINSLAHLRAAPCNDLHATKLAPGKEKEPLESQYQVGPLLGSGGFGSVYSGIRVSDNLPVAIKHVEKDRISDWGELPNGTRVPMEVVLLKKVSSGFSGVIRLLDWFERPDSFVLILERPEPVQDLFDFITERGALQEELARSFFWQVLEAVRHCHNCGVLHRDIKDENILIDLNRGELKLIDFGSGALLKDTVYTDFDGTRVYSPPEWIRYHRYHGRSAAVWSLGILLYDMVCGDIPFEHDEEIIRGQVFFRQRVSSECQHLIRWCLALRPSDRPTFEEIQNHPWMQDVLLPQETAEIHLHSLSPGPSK
PIM2, sequence (Q9P1W9 whole entry): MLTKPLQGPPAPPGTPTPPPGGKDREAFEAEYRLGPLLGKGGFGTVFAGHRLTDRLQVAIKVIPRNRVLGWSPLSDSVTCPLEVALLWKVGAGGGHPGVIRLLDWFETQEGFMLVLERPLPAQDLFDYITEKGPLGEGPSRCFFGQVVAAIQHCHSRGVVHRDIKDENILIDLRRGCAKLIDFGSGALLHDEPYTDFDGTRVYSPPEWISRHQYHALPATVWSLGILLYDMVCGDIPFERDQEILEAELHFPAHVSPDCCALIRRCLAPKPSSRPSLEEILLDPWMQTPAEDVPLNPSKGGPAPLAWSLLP

SMILES	Ki (PIM2) [nM]	Ki (PIM3) [nM]	EC50 [1] [nM]	Ki (PIM1) [nM]	IC50 (BaF3 PIM1 cells) [nM]
CCc1cncc(-c2cc3c(cn2)cnn3-c2cccc(N3CCNC[C@@H](O)C3)n2)c1 (single isomer, unassigned) [Compound 122]	4.59	0.083	2700	–	–
Cc1cncc(-c2cc3c(cn2)cnn3-c2cccc(N3CC(N)CCC3C)n2)n1 (single isomer, unassigned) [Compound 182, 6-methyl-1-[6-[6-(6-methylpyrazin-2-yl)pyrazolo[4,3-c]pyridin-1-yl]-2-pyridyl]piperidin-3-amine]	–	–	1900	–	–
Cc1cncc(-c2cc3c(cn2)cnn3-c2cccc(N3CCCNCC3)n2)c1 [Compound 141, 1-(6-(1,4-diazepan-1-yl)pyridin-2-yl)-6-(5-methylpyridin-3-yl)-1H-pyrazolo[4,3-c]pyridine]	3.37	0.078	5000	–	–
O[C@@H]1CNCCN(c2cccc(-n3ncc4cnc(-c5cnn(CC(F)(F)F)c5)cc43)n2)C1 [Compound 188, (R)-1-(6-(6-(1-(2,2,2-Trifluoroethyl)-1H-pyrazol-4-yl)-1H-pyrazolo[4,3-c]pyridin-1-yl)-pyridin-2-yl)-1,4-diazepan-6-ol]	4.64	0.611	–	0.173	418
Cc1cncc(-c2cc3c(cn2)cnn3-c2cccc(N3C[C@@H](N)C[C@H](F)C3)n2)n1 [Compound 192, (3S,5S)-5-fluoro-1-[6-[6-(6-methylpyrazin-2-yl)pyrazolo[4,3-c]pyridin-1-yl]-2-pyridyl]piperidin-3-amine]	3.35	0.21	–	0.428	1700
Cc1cncc(-c2cc3c(cn2)cnn3-c2cccc(N3CCC(N)CC3)n2)n1 [Compound 194, 1-[6-[6-(6-methylpyrazin-2-yl)pyrazolo[4,3-c]pyridin-1-yl]-2-pyridyl]piperidin-4-amine]	3.12	0.125	–	0.243	1500
Cc1cncc(-c2cc3c(cn2)cnn3-c2cccc(N3C[C@@H](N)C[C@@H](F)C3)n2)n1 [Compound 198, (3S,5R)-5-fluoro-1-[6-[6-(6-methylpyrazin-2-yl)pyrazolo[4,3-c]pyridin-1-yl]-2-pyridyl]piperidin-3-amine]	2.55	0.089	–	0.117	1100
COc1ccc(-n2ncc3cnc(-c4cncc(C)n4)cc32)nc1N1CCNCC(O)C1 (centres unmarked) [Compound 207, 1-(3-methoxy-6-(6-(6-methylpyrazin-2-yl)-1H-pyrazolo[4,3-c]pyridin-1-yl)pyridin-2-yl)-1,4-diazepan-6-ol]	3.67	0.093	–	0.182	1500
Cc1cncc(-c2cc3c(cn2)cnn3-c2cccc(N3CCC4(CCCN4)CC3)n2)n1 [Compound 216, 8-[6-[6-(6-methylpyrazin-2-yl)pyrazolo[4,3-c]pyridin-1-yl]-2-pyridyl]-1 8-diazaspiro[4.5]decane]	2.95	0.094	–	0.223	715
OCC(O)c1cncc(-c2cc3c(cn2)cnn3-c2cccc(N3CCNCC3)n2)n1 (centres unmarked) [Compound 277, 1-(6-(1-(6-(piperazin-1-yl)pyridin-2-yl)-1H-pyrazolo[4,3-c]pyridin-6-yl)pyrazin-2-yl)ethane-1,2-diol]	4.67	–	4200	–	–
NCCOc1cncc(-c2cc3c(cn2)cnn3-c2cccc(N3CCNCC3)n2)n1 [Compound 286, 2-((6-(1-(6-(piperazin-1-yl)pyridin-2-yl)-1H-pyrazolo[4,3-c]pyridin-6-yl)pyrazin-2-yl)oxy)ethanamine]	–	0.092	8200	–	–
Cc1cncc(-c2cc3c(cn2)cnn3-c2cccc(N3CCC[C@@H](O)C3)n2)n1 [Compound 298, (R)-1-(6-(6-(6-methylpyrazin-2-yl)-1H-pyrazolo[4,3-c]pyridin-1-yl)pyridin-2-yl)piperidin-3-ol]	2.68	0.396	–	0.854	1600
Cc1cncc(-c2cc3c(cn2)cnn3-c2cccc(N3CCC[C@H](O)C3)n2)n1 [Compound 299, (S)-1-(6-(6-(6-methylpyrazin-2-yl)-1H-pyrazolo[4,3-c]pyridin-1-yl)pyridin-2-yl)piperidin-3-ol]	4.17	0.248	–	0.419	1600
FC1CCNCC1c1cccc(-n2ncc3cnc(-c4cnn(CC(F)(F)F)c4)cc32)n1 (centres unmarked) [Compound 306, 1-(6-(4-fluoropiperidin-3-yl)pyridin-2-yl)-6-(1-(2,2,2-trifluoroethyl)-1H-pyrazol-4-yl)-1H-pyrazolo[4,3-c]pyridine]	–	0.125	1700	–	–

The remaining compounds from weak to strong by Ki (PIM2), led by results:

Ki (PIM2) [nM]	Ki (PIM3) [nM]	EC50 [1] [nM]	Ki (PIM1) [nM]	IC50 (BaF3 PIM1 cells) [nM]	SMILES
2.65	0.199	–	0.385	1000	Cc1cncc(-c2cc3c(cn2)cnn3-c2cccc(N3CCC4(CNC4)C3)n2)n1 [Compound 214, 1-[6-(2 6-diazaspiro[3.4]octan-6-yl)-2-pyridyl]-6-(6-methylpyrazin-2-yl)pyrazolo[4,3-c]pyridine]
1.28	0.023	–	0.06	235	Cc1cncc(-c2cc3c(cn2)cnn3-c2cccc(NC3CCNCC3)n2)n1 [Compound 190, 6-[6-(6-methylpyrazin-2-yl)pyrazolo[4,3-c]pyridin-1-yl]-N-(4-piperidyl)pyridin-2-amine]
1.22	0.046	–	0.055	2200	Cc1cncc(-c2cc3c(cn2)cnn3-c2ccc(C3CC3)c(N3CCCNCC3)n2)n1 [Compound 197, 1-(5-cyclopropyl-6-(1,4-diazepan-1-yl)pyridin-2-yl)-6-(6-methylpyrazin-2-yl)-1H-pyrazolo[4,3-c]pyridine]
1.16	0.05	2600	–	–	c1cc(N2CCNCC2)nc(-n2ncc3cnc(-c4cnccn4)cc32)c1 [Compound 144, 1-(6-piperazin-1-yl-2-pyridyl)-6-pyrazin-2-yl-pyrazolo[4,3-c]pyridine]
0.724	0.047	–	0.074	778	Cc1cncc(-c2cc3c(cn2)cnn3-c2cnc(C)c(N3CCC[C@H](N)C3)n2)n1 [Compound 228, (3S)-1-[3-methyl-6-[6-(6-methylpyrazin-2-yl)pyrazolo[4,3-c]pyridin-1-yl]pyrazin-2-yl]piperidin-3-amine]
0.575	0.011	–	0.045	682	Cc1nc(-c2cc3c(cn2)cnn3-c2cccc(N3CCC[C@H](N)C3)n2)cnc1N [Compound 209, (S)-5-(1-(6-(3-aminopiperidin-1-yl)pyridin-2-yl)-1H-pyrazolo[4,3-c]pyridin-6-yl)-3-methylpyrazin-2-amine]
0.44	–	4600	–	–	Cc1cncc(-c2cc3c(cn2)cnn3-c2cccc(N3CCCNCC3)n2)n1 [Compound 138, 1-[6-(1 4-diazepan-1-yl)-2-pyridyl]-6-(6-methylpyrazin-2-yl)pyrazolo[4,3-c]pyridine]
0.373	0.089	–	0.038	181	O[C@H]1CNCCN(c2cccc(-n3ncc4cnc(-c5cnn(CC(F)(F)F)c5)cc43)n2)C1 [Compound 189, (S)-1-(6-(6-(1-(2,2,2-Trifluoroethyl)-1H-pyrazol-4-yl)-1H-pyrazolo[4,3-c]pyridin-1-yl)-pyridin-2-yl)-1,4-diazepan-6-ol]
